Reference: the Deep4Chem optical property database

Assay: solvent given as SMILES
[1] = in c1ccc2c(c1)c1ccccc1n2-c1ccc(-c2ccc(-n3c4ccccc4c4ccccc43)cc2)cc1

CN(C)c1ccc2nc(-c3ccccc3)sc2c1Cl
emission maximum (in C1CCCCC1): 389 nm | emission maximum (in CC#N): 466 nm | emission maximum (in CC(C)O): 477.17 nm | emission maximum (in CO): 472 nm | emission maximum (in CS(C)=O): 465.05 nm | emission maximum (in ClC(Cl)Cl): 437 nm | emission maximum (in c1ccccc1): 425.86 nm

C(=C\c1ccc(-n2c3ccccc3c3ccccc32)cc1)/c1ccc(-c2ccc(/C=C/c3ccc(-n4c5ccccc5c5ccccc54)cc3)cc2)cc1
emission maximum (in Cc1ccccc1): 420 nm | emission maximum [1]: 438 nm

N#CC1=CC(/C=C/c2ccccc2)=CC(C#N)=P1(c1ccccc1)c1ccccc1
emission maximum (in ClC(Cl)Cl): 581 nm

O=P1(c2ccccc2)c2cccc3ccc4ccc1n4c23 (centres undefined)
emission maximum (in ClCCl): 496 nm

CCNc1cc2oc3c/c(=[NH+]\CC)c(C)cc-3c(-c3ccccc3C(=O)OCC)c2cc1C
emission maximum (in CC#N): 552 nm | emission maximum (in CCO): 552 nm | emission maximum (in CN(C)C=O): 532 nm | emission maximum (in CO): 555 nm | emission maximum (in O): 554 nm

O=Cc1nc2ccc(C#Cc3ccc(N(c4ccccc4)c4ccccc4)cc3)cc2s1
emission maximum (in Cc1ccccc1): 519 nm

COc1ccc(N(c2ccc(OC)cc2)c2ccc(-c3ccc(C=C(C#N)C#N)cc3)cc2)cc1
emission maximum (in ClC(Cl)Cl): 696 nm

CCCCc1cc2c3c(c1)-c1ccccc1B(c1c(C)cc(C)cc1C)N3B(c1c(C)cc(C)cc1C)c1ccccc1-2
emission maximum (in ClCCl): 413 nm

c1ccc2c(c1)-c1ccccc1[Si]21c2ccccc2-c2cc3c(cc21)-c1ccccc1[Si]31c2ccccc2-c2ccccc21
emission maximum (in ClCCl): 408 nm

Cc1ccc(C(=O)OCc2ccc3c4cccc5cccc(c6cccc2c63)c54)cc1
emission maximum (in CCO): 445 nm

Cc1cc(C)c(C2=C3C=CC=[N+]3[B-]3(c4cccc5ccccc45)Oc4cc(O)cc5c6ccc(C)cc6c6cc2n3c6c45)c(C)c1 (centres undefined)
emission maximum (in ClC(Cl)Cl): 669 nm

CCCCCCOc1cc(C=O)c(OCCCCCC)cc1C=O
emission maximum (in ClCCl): 467 nm

Cc1cc2nc3[nH]c(=O)[nH]c(=O)c3nc2cc1C
emission maximum (in CC#N): 437 nm

N#Cc1ccc(-c2ccc(C3=CCCCC3)s2)s1
emission maximum (in C1CCOC1): 441 nm | emission maximum (in CC#N): 448 nm | emission maximum (in CCCCCC): 427 nm | emission maximum (in CCO): 436 nm | emission maximum (in OCCOCCO): 449 nm | emission maximum (in c1ccncc1): 448 nm

O=C1/C(=C2\Sc3ccc(S(=O)(=O)Cl)cc3C2=O)Sc2ccc(S(=O)(=O)Cl)cc21
emission maximum (in C1COCCO1): 576 nm | emission maximum (in CS(C)=O): 624 nm

CCC1=C(CC)C(C)=[N+]2C1=Cc1c(C)c3cc4c(cc3n1[B-]2(F)F)=[N+]1C(=Cc2c(CC)c(CC)c(C)n2[B-]1(F)F)C=4C
emission maximum (in ClC(Cl)Cl): 703 nm

c1ccc2c(C3=C(c4cccc5ccccc45)c4cccc5c4c(cc4nc6ccccc6nc45)O3)cccc2c1
emission maximum (in ClCCl): 538 nm

COc1ccc([C@@H]2C[C@](O)(c3ccccn3)C[C@](O)(c3ccccn3)[C@H]2C(=O)c2ccc(N(c3ccccc3)c3ccccc3)cc2)cc1
emission maximum (in C1CCOC1): 495 nm | emission maximum (in CC#N): 522 nm | emission maximum (in CCO): 504 nm | emission maximum (in CCOC(C)=O): 495 nm | emission maximum (in CN(C)C=O): 521 nm | emission maximum (in ClCCl): 513 nm | emission maximum (in c1ccccc1): 468 nm

COCCC1=Cc2nc1ccc1[nH]c(cc1CCOC)c1nc(c(N)cc3[nH]c2cc3CCOC)C(CCOC)=C1
emission maximum (in Cc1ccccc1): 748 nm

CCCCCn1c2ccccc2c(=O)c2ccccc21
emission maximum (in CS(C)=O): 414 nm | emission maximum (in O): 428 nm

c1ccc(Cn2c3sccc3c3c4nsnc4c4c5ccsc5n(Cc5ccccc5)c4c32)cc1
emission maximum (in Cc1ccccc1): 508 nm | emission maximum (in ClCCl): 541 nm

CCC1=C(C)C2=C(c3c4ccccc4cc4ccccc34)c3c(C)c(CC)c(C)n3[B-](F)(F)[N+]2=C1C
emission maximum (in CC#N): 537 nm | emission maximum (in CCCCCC): 539 nm | emission maximum (in CCO): 539 nm | emission maximum (in CN(C)C=O): 541 nm | emission maximum (in Cc1ccccc1): 544 nm | emission maximum (in ClCCl): 543 nm

Cn1cc(-c2nc3ccccc3nc2C#Cc2ccc(C#N)cc2)c2ccccc21
emission maximum (in ClCCl): 520 nm

c1ccc(-c2nc(-c3nc(-c4ccccc4)c(-c4ccccc4)o3)oc2-c2ccccc2)cc1
emission maximum (in C1COCCO1): 411 nm

COc1ccc2c(c1)CCc1c(-c3ccccc3)c3n(c1-2)[B-](F)(F)[N+]1=C2C=NC=CN2[B-](F)(F)[N+]1=C3
emission maximum (in ClCCl): 576 nm

O=C1c2ccccc2NCN1Cc1ccccc1
emission maximum (in CC#N): 416 nm | emission maximum (in CCCCCCCCCCCCCCCC): 381 nm | emission maximum (in CO): 443 nm | emission maximum (in ClC(Cl)Cl): 398 nm | emission maximum (in c1ccccc1): 395 nm

CCCCCCCCCCCCC(CCCCCCCCCC)Cn1c2cc(/C=C/C=C(C#N)C#N)c3cccc4c5cccc6c(/C=C/C=C(C#N)C#N)cc1c(c65)c2c34 (centres undefined)
emission maximum (in C1CCCCC1): 648 nm | emission maximum (in CC#N): 702 nm | emission maximum (in Cc1ccccc1): 668 nm | emission maximum (in ClCCl): 697 nm

COc1cc2cc(OC)c(C#Cc3ccc([N+](=O)[O-])cc3)cc2cc1C#Cc1ccc([N+](=O)[O-])cc1
emission maximum (in C1CCOC1): 514 nm | emission maximum (in ClC(Cl)Cl): 577 nm | emission maximum (in ClCCl): 593 nm

Cc1ccccc1N(c1ccc(C(C)(C)C)cc1)c1ccc2ccc3c(N(c4ccc(C(C)(C)C)cc4)c4ccccc4C)ccc4ccc1c2c43
emission maximum (in Cc1ccccc1): 462 nm

CCOC(=O)CCCCCn1c2ccc(N)cc2c(=O)c2cc(N)ccc21
emission maximum (in O): 547 nm

COc1cccc(-c2nc3sc4ccccc4c3s2)c1
emission maximum (in CS(C)=O): 412 nm

Cc1ccc(C2=C3C=CC([Se]c4ccccc4)=[N+]3[B-](F)(F)n3c([Se]c4ccccc4)ccc32)cc1
emission maximum (in C1CCOC1): 609 nm

CCN(CC)c1ccc2nc3c4ccccc4c(=O)cc-3oc2c1
emission maximum (in C1COCCO1): 582 nm | emission maximum (in CC#N): 620 nm | emission maximum (in CC(C)=O): 614 nm | emission maximum (in CCCCCC): 532 nm | emission maximum (in CCO): 638 nm | emission maximum (in CCOC(C)=O): 594 nm | emission maximum (in CO): 643 nm | emission maximum (in CS(C)=O): 635 nm | emission maximum (in Cc1ccccc1): 572 nm | emission maximum (in ClCCl): 608 nm

Cc1ccc(C)c(C)c1
emission maximum (in C1CCCCC1): 295.77 nm

CC1=CC(C)=[N+]2C1=C(c1c3ccccc3c(C)c3ccccc13)c1c(C)cc(C)n1[B-]2(F)F
emission maximum (in CC#N): 518 nm | emission maximum (in CCCCCC): 512 nm | emission maximum (in CCO): 516 nm | emission maximum (in CN(C)C=O): 519 nm | emission maximum (in Cc1ccccc1): 517 nm | emission maximum (in ClCCl): 519 nm

CC[Si](C)(C)c1cc2ccc3cccc4ccc(c1C(=O)NC(C)(C)C)c2c34
emission maximum (in ClC(Cl)Cl): 383 nm

Cc1cc(=O)c2ccc(N)cc2o1
emission maximum (in C1CCOC1): 382 nm | emission maximum (in C1COCCO1): 378 nm | emission maximum (in CC#N): 388 nm | emission maximum (in CC(C)O): 418 nm | emission maximum (in CCCCO): 417 nm | emission maximum (in CCCO): 416 nm | emission maximum (in CCOC(C)=O): 378 nm | emission maximum (in CN(C)C=O): 408 nm | emission maximum (in CO): 421 nm | emission maximum (in CS(C)=O): 402 nm | emission maximum (in ClC(Cl)Cl): 380 nm | emission maximum (in O): 435 nm

CCCCOc1ccc(-c2cc3c(o2)c(-c2ccc(OCCCC)cc2)c2n3[B-](F)(F)[N+]3=Cc4c(-c5ccc(OCCCC)cc5)c5oc(-c6ccc(OCCCC)cc6)cc5n4[B-](F)(F)[N+]3=C2)cc1
emission maximum (in C1CCOC1): 659 nm | emission maximum (in CN(C)C=O): 667 nm | emission maximum (in CS(C)=O): 672 nm | emission maximum (in Cc1ccccc1): 660 nm | emission maximum (in ClC(Cl)Cl): 660 nm | emission maximum (in ClCCl): 661 nm

Nc1cc2nc3cc(Cl)c(Cl)cc3nc2cc1N
emission maximum (in CCO): 549 nm

CCN(CC)c1ccc(-n2cccc2)cc1
emission maximum (in CC#N): 337 nm | emission maximum (in CCCCCC): 326 nm

CN(C)c1ccc(/C=C/c2cc(/C=C/c3ccc(N(C)C)cc3)nc(N)n2)cc1
emission maximum (in Cc1ccccc1): 466 nm | emission maximum (in ClC(Cl)Cl): 511 nm

CCn1c2ccccc2c2c(C#N)c3c(ccc4c3cnn4C)nc21
emission maximum (in CCOC(C)=O): 476 nm

CCCCCCCCCCCCCCCCn1c(-c2cc(-c3nc4ccccc4n3CCCCCCCCCCCCCCCC)cc(-c3nc4ccccc4n3CCCCCCCCCCCCCCCC)c2)nc2ccccc21
emission maximum (in C1CCOC1): 363 nm

O=C(/C=C(\O)c1ccc(N2c3ccccc3Oc3ccccc32)cc1)c1ccc(N2c3ccccc3Oc3ccccc32)cc1
emission maximum (in Cc1ccccc1): 594 nm | emission maximum [1]: 550.32 nm

Cc1ccc(C2=C3C=C(I)C=[N+]3[B-](F)(F)n3c2cc(I)c3I)cc1
emission maximum (in C1CCCCC1): 577.5 nm | emission maximum (in CC#N): 578 nm | emission maximum (in CCO): 582 nm | emission maximum (in CCOC(C)=O): 578.5 nm | emission maximum (in CO): 580 nm | emission maximum (in OCC(F)(F)F): 576 nm

COc1ccc(C2=C(c3ccc(-c4ccccc4)cc3)C(c3ccccc3)=[N+]3C2=Nc2c(-c4ccc(OC)cc4)c(-c4ccc(-c5ccccc5)cc4)c(-c4ccccc4)n2[B-]3(F)F)cc1
emission maximum (in Cc1ccccc1): 716 nm

CCCCCn1c2ccc(S(=O)(=O)O)cc2c(=O)c2cc(S(=O)(=O)O)ccc21
emission maximum (in CS(C)=O): 421 nm | emission maximum (in O): 431 nm

CN(C)c1ccc(C=C/C=C/C=C/c2ccc(C#N)cc2)cc1
emission maximum (in C1CCOC1): 609 nm | emission maximum (in CC#N): 658 nm | emission maximum (in CCCC#N): 640 nm | emission maximum (in CCCCCC): 467 nm | emission maximum (in CCCCOCCCC): 541 nm | emission maximum (in CCO): 637 nm | emission maximum (in CCOCC): 567 nm

C[Si](C)(C)c1ccc([Si](C)(C)C)c2ccccc12
emission maximum (in C1CCCCC1): 333 nm

CC1(C)OB(c2cc3ccc4cccc5ccc(c2)c3c45)OC1(C)C
emission maximum (in Cc1ccccc1): 386 nm

CC(C)c1ccc(/C=C/c2nc3ccc(N(C)C)cc3s2)cc1
emission maximum (in C1CCCCC1): 454 nm | emission maximum (in CC#N): 517 nm

c1cncc(-c2ccc(-c3c4ccccc4c(-c4ccc(-c5cccnc5)cc4)c4ccccc34)cc2)c1
emission maximum (in ClCCl): 426 nm

COc1ccc(C2=c3sc(-c4ccc(OC)cc4)cc3=[N+]3C2=Nc2c(-c4ccc(OC)cc4)c4sc(-c5ccc(OC)cc5)cc4n2[B-]3(F)F)cc1
emission maximum (in ClC(Cl)Cl): 814 nm

CCCCCCN(CCCCCC)c1ccc(C#Cc2ccc(/C=C/c3ccc(-c4ccc(/C=C/c5ccc(C#Cc6ccc(N(CCCCCC)CCCCCC)cc6)cc5)cc4)cc3)cc2)cc1
emission maximum (in Cc1ccccc1): 452 nm
